Tests used:
MDA-MB-468 cells = assay: Anti-proliferation CellTiter-Glo assay, MDA-MB-468; assay type: cell-based; details: Homo sapiens
From the text: MV-4-11 and MDA-MB-468 cell lines were used to evaluate the anti-proliferative activities of the selected target compounds (CellTiter-Glo assay), and AML-12 hepatocytes were selected to evaluate the toxicity of the compounds.
MV-4-11 and MDA-MB-468 cell line were derived from Cell Resources Center of Shanghai Academy of life sciences (Shanghai, China). AML-12 cell line was brough from Nanjing Lixing Biotechnology Co. Ltd. (Nanjing, China). MDA-MB-468 cell line was maintained in Dulbecco’s Modified Eagle Medium (DMEM, KeyGEN Bio) that contained 10% FBS (Biochanel, China), MV-4-11 cell line was maintained in Iscove’s Modified Dulbecco Medium containing; 10% FBS (Biochannel, China), AML-12 cell line was maintained in DMEM/F-12 (1:1) (KeyGEN, China; 1% ITS Liquid Media Supplement (Sigma, America), dexamethasone 40 ng/mL (Sigma, USA) and 10% FBS (Biochannel, China). All cells were grown in a humidified incubator containing 5% carbon dioxide at 37 ℃. All compounds were dispersed in dimethyl sulfoxide (Sigma), the concentration of the reserve solution was 10 mmol/L and the solution was stored in a refrigerator at −20 ℃. SDMA (# 13222S), β- Tubulin (#2146S) and horseradish peroxidase (HRP)-linked secondary antibodies anti-rabbit or anti-mouse IgG were purchased from Cell Signaling Technology (CST), and the anti-PRMT5 (ab109451) antibody was purchased from ABCAM.
The antiproliferative activities of compounds in vitro were measured by CellTiter-Glo (CTG) assay (Promega, America). In linear/log-phase growth, cultured MV-4-11 cells were split to with seeding density of 2 × 10^5 cells/mL in 1–20 mL of media, depending on the yield required at the end of the growth period. At the conclusion of each treatment period, cells were harvested by centrifugation (4 min, 1000 rpm), and cell pellets were rinsed twice with PBS before being research further processing. Afterwards, cells were plated in 96-well plates with a density of 500 cells/well in […] media. After six hours incubation, compounds treatment was performed. Half of the culture medium was moved and re-plated with fresh media with fresh compound after 6 days. On the 12th day, Cell Titer-Glo Luminescent Cell Viability assays (Promega, USA) were used to determine the viable cell number, and luminescence was recorded using the Envision Multilabel Plate Readers (PerkinElmer). The concentration dependence curves were determined at each time point using GraphPad Prism 8.0 software.

sDMA [1] = assay: Western blot of PRMT5 substrate sDMA in MV-4-11 cells; assay type: cell-based; details: 96 h, five-fold concentration gradient
Method: Compounds were administered at the expected concentration for the expected time in MV-4-11 cell lines. After being washed twice with PBS, cells were lysed with RIPA buffer, protease inhibitors (PMSF, MCE, New York, NY, USA), and phosphatase cocktails II (MCE, USA) for 1 h. The mixture was centrifuged at 12000 rpm for 15 min. The total protein content was quantified by BCA kit (Beyotime, Shanghai, China). Equivalent proteins were electrophoresed through 8~10% SDS-PAGE and then transferred on to polyvinylidene difluoride membranes (Millipore, Burlington, MA, USA). Subsequently, block the membrane for 1~2 h by 5% (w/v) skim milk (BD, Columbus, OH, USA). Proteins were detected using primary antibodies, followed by HRP-conjugated secondary antibodies, and visualization was performed using ECL (Vazyme Biotech, Beijing, China) as the HRP substrate. The target blots were detected with chemiluminescence system (Tanon, Shanghai, China). The densitometric analysis was performed with Image J software.
Western blot analysis of PRMT5 substrate sDMA, as indicated in MV-4-11 cancer cells treated with the indicated compounds for 96 h. β-Tubulin was used as a loading control. (B) The relative strength of sDMA signal on the Western blots was measured by densitometry. The data are shown as the mean ± SD of three independent experiments.

sDMA [2] = assay: Western blot of sDMA in MV-4-11 xenograft tumors; assay type: in vivo, BALB/c nude mice; details: 10 mg/kg, 28 days
Method: Subsequently, we investigated the effects of compound 20 on the expression of the PRMT5 substrate sDMA in vivo (Figure 8). Similarly, the expression of sDMA was decreased after the treatment of compound 20, which was in line with its antitumor activity in vivo.
Tumor tissue was grinded by a cryo-grinder before being lysed with an RIPA buffer, protease inhibitors (PMSF, MCE), and phosphatase cocktails II (MCE). The mixture was centrifuged for 15 min (12,000 rpm). The following steps were the same as with cells.
(A) Western blot analysis of sDMA as indicated in MV-4-11 xenograft tumors treated with the indicated compounds for 28 days. (B) The relative strength of sDMA signal on the Western blots was measured by densitometry. The data are shown as the mean ± SD of three independent experiments. * p < 0.05 vs. control.

PRMT5 = biological target: T1, PRMT5 (Homo sapiens, UniProt O14744); assay: Cellular thermal shift assay (CETSA) in MV-4-11 cells; assay type: cell-based
T1 construct: The final concentrations of PRMT5 enzyme: 2.5 nm/L
T1 sequence (O14744 whole entry): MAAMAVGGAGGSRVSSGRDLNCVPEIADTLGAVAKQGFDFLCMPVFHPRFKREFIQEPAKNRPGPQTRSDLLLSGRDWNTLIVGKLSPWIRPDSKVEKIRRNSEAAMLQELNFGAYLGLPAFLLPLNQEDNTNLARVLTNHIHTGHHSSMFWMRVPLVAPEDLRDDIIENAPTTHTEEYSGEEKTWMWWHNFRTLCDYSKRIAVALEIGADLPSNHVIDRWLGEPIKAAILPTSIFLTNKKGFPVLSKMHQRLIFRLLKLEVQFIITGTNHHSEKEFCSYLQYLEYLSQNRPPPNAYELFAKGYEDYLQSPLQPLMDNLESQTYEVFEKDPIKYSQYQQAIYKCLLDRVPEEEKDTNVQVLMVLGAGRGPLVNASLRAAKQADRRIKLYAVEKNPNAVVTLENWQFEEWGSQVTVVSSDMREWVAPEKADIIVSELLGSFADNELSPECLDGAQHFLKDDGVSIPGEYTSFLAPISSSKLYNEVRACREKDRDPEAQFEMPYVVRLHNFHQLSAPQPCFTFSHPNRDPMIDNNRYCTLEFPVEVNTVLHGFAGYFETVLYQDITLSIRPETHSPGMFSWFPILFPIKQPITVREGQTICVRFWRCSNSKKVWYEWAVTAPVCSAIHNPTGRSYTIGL
T1 sequence (Q9BQA1 whole entry partner): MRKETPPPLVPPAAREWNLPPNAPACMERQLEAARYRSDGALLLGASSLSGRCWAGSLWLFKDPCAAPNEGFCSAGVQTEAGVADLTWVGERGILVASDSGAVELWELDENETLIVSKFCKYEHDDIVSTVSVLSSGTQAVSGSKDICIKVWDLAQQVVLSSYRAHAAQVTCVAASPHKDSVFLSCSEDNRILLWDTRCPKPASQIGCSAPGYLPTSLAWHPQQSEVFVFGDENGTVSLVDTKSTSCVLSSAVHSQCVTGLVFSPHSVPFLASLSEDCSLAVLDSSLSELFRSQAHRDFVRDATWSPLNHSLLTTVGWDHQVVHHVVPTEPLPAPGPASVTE
Method: The cellular thermal shift assay and the isothermal dose response were run as previously described. Briefly, MV-4-11 cells were collected and centrifugated (4 min, 1000 rpm) and washed twice with PBS. Then the cells were divided three equal parts with seeding density of 1 × 10^6 cells/mL into 60 mm cell culture dish in three mL media. The cell suspension was incubated with DMSO and compounds for 18 h at 37 °C, 5% CO2, and 85% RH.
After incubation, cells were collected and washed twice with PBS. Then they divided the ten parts into transferred thin-walled PCR tubes (0.2 mL, Axygen, Union City, CA, USA) in 50μL PBS. Cells were subjected to 3 min of heat in 96-well thermal cycler (Eppendorf Mastercycler nexus GSX1, Düsseldorf, German) at temperatures of 37, 46, 49, 52, 55, 58, 61, 64, 67 and 70 °C. After heating, cells were left to cool for 3 min and then snap frozen in −80 °C ultra-low temperature freezer overnight. The next day, cells were subjected to 3 rapid freeze thaws with 15 s of vortexing after each thaw. […]
(B) The relative strength of PRMT5 signal on the Western blots was measured by densitometry. […] All data were analyzed using a Boltzmann sigmoidal fit. […]

MV-4-11 xenograft = MV-4-11 xenograft mouse model; assay type: in vivo, BALB/c nude mice; details: 28 days
Method: Based on the excellent enzymatic and anti-proliferative activities of compound 20 in vitro, we then evaluated antitumor activities in vivo in an MV-4-11 xenograft mouse model.
Male BALB/c nude mice (6–8 weeks old) were purchased from Hangzhou Medical College. All animals were housed in a specific pathogen-free facility. MV-4-11 cells (5 × 10^6) suspended in 0.2 mL of PBS were inoculated subcutaneously on the right flank of each BALB/c nude mouse. Mice were divided randomly (5 mice for each group) into two treatment groups and a control group when the size of the tumors reached 150 mm^3. […] The tumor volume and body weight were measured every 2 days. The tumor volume was determined with Vernier calipers and calculated as follows: tumor volume = a × b^2/2, where a and b stand for the longest and shortest diameters measured by the vernier caliper, respectively. All animal experiments have been approved by Pharmaceutical Experiment Center of China Pharmaceutical University.
(A) The resulting tumors excised from the animals after treatment. […] (C) The nude mouse body weight was measured every 2 days. (D) The tumor volumes of the nude mice were measured and calculated once every 2 days.

O=C(NC[C@H](O)CN1CCc2ccccc2C1)c1ccc2c(c1)c1c(n2CC2COC2)CCCC1 [Compound 20, (S)-N-(3-(3,4-dihydroisoquinolin-2(1H)-yl)-2-hydroxypropyl)-9-(oxetan-3-ylmethyl)-2,3,4,9-tetrahydro-1H-carbazole-6-carboxamide]
GI50 (MDA-MB-468 cells): 9.9 ± 6.8 nM
sDMA protein expression (sDMA [1]): concentration-dependent decrease in sDMA
expression of sDMA in vivo (sDMA [2]): decreased
PRMT5 melting point increase compared to DMSO vehicle (PRMT5; 1 μM, 18 h): 7.2 °C
Inhibition of PRMT5 degradation at 58 °C (PRMT5; isothermal dose response, 58 °C): dose-dependent manner
body weight (MV-4-11 xenograft; 10 mg/kg BID): no significant weight fluctuations
tolerability / mortality (MV-4-11 xenograft; 10 mg/kg BID): well-tolerated with no mortality
TGI (MV-4-11 xenograft; 10 mg/kg, twice daily (BID)): 47.6%

Reference: PMC9572541, “Design, Synthesis and Biological Evaluation of Novel and Potent Protein Arginine Methyltransferases 5 Inhibitors for Cancer Therapy” (Molecules, 2022)
